What was measured:
GST tagged PIP4KtypeIIA = target: T1, GST tagged PIP4KtypeIIA (Homo sapiens, UniProt P48426); assay: ADP-glo kinase assay PIP4K 2A (PIP4KtypeIIA inhibition assay); format: biochemical; settings: Table 3; compounds listed under IC50 range headings; 10 uM ATP, 0.5 nM PIP4KIIA
T1 construct: made in house; host or cells: E. coli
T1 sequence (P48426 1-406): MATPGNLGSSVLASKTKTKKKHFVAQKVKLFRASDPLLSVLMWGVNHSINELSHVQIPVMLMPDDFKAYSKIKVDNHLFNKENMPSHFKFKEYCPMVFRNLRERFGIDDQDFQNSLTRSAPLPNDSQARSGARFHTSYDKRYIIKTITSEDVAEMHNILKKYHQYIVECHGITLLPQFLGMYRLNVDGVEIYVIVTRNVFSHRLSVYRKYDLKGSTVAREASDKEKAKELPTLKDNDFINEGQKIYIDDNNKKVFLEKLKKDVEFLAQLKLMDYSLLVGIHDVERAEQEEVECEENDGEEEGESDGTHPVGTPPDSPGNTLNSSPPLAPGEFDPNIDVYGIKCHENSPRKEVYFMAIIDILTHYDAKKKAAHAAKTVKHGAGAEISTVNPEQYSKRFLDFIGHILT
In short: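 E. coli-expressed GST-PIP4KtypeIIA (0.5 nM final) was preincubated 1 h at 27 °C with compound (up to 4.8 μM, 5% DMSO) in PI5P/DOPE lipid in 50 mM HEPES pH 7.3 with 10 mM MgCl2. The reaction was started with 10 μM ATP (final) and run 1 h. ADP was read by ADP-Glo luminescence via a calibration curve, and IC50 was taken from % residual activity.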

GST tagged PIP4KtypeIIB = target: T2, GST tagged PIP4KtypeIIB (Homo sapiens, UniProt P78356); assay: Trans-FI P kinase assay PIP4K2B (PIP4KtypeIIB inhibition assay); format: biochemical; settings: Table 4; compounds listed under IC50 range headings; 100 uM GTP, 5 nM PIP4KIIB; read-out: Trans-FI P kinase assays: PIP4K2B IC50
T2 construct: made in house; host or cells: E. coli
T2 sequence (P78356 1-416): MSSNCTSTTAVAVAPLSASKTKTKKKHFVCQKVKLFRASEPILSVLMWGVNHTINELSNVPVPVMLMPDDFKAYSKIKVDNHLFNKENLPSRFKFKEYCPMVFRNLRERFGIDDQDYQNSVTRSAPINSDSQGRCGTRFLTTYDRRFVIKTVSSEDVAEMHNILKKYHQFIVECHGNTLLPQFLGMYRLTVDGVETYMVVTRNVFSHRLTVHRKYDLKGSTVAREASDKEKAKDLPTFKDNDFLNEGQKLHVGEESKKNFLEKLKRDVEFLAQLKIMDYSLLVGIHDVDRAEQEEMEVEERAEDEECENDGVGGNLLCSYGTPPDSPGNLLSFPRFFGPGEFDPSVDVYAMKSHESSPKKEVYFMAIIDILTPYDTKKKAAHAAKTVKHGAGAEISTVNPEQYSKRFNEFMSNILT
In short: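 Purified GST-PIP4KIIB (5 nM final), 1 h preincubation with compound at 27 C, then 2 h reaction with 100 uM GTP and 80 uM PI5P plus DOPE carrier lipid in pH 7.3 HEPES/MgCl2/Triton buffer with 5% DMSO. GDP read by Transcreener FI fluorescence against a calibration curve; IC50 from % no-inhibitor activity vs log concentration.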

[1] = target: T3, PIP4K2A (full length protein, SignalChem) (Homo sapiens, UniProt P48426); assay: Kinase Assay PIP4K2 A (Sprint); ADP-Glo biochemical assay; settings: Table 2; compounds listed under IC50 range headings
T3 construct: 4 nM PIP4K2A (full length protein, SignalChem); purchased SignalChem
T3 sequence (P48426 1-406): T1 sequence (P48426 1-406)
In short: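 Compounds (10-point, 3-fold dilutions) were pre-incubated 15 min at RT with an enzyme/substrate mix of 4 nM full-length PIP4K2A and 100 μM PI(5)P diC8 in 20 mM MOPS pH 7.2, 25 mM MgCl2, 0.005% Tween 20. A 60 μM ATP solution was added, reaction 1 h RT; ADP read by ADP-Glo luminescence, IC50 fitted from % inhibition vs DMSO.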

Compound | IC50 (GST tagged PIP4KtypeIIA) [µM] | IC50 (GST tagged PIP4KtypeIIB) [µM] | IC50 [1] [µM]
CN(C)C(=O)c1ccc(-c2cncc(-c3ccncc3)c2)cc1 [Example 1, 4-([3,4′-bipyridin]-5-yl)-N,N-dimethylbenzamide] | > 5 | > 5 | < 5
CN(C)C(=O)c1ccc(-c2cncc(-c3ccnc4[nH]ccc34)c2)cc1 [Example 2, 4-(5-(1H-pyrrolo[2,3-b]pyridin-4-yl)pyridin-3-yl)-N,N-dimethylbenzamide] | 0.1 to 1 | 0.1 to 1 | 0.1 to 1
CN(C)C(=O)c1ccc(-c2cncc(-c3cnc4[nH]ccc4c3)c2)cc1 [Example 4, 4-(5-(1H-pyrrolo[2,3-b]pyridin-5-yl)pyridin-3-yl)-N,N-dimethylbenzamide] | 2.5 to 5 | 2.5 to 5 | 0.1 to 1
COC(=O)c1c[nH]c2nccc(-c3cnc(N)c(-c4ccc(C(=O)N(C)C)cn4)c3)c12 [Example 114, methyl 4-(2′-amino-5-(dimethylcarbamoyl)-[2,3′-bipyridin]-5′-yl)-1H-pyrrolo[2,3-b]pyridine-3-carboxylate] | > 5 |  | < 5
Cc1nn2c(=O)c(CCO)c(C)[nH]c2c1-c1cncc(-c2ccc(N3CCCC3=O)cc2)c1 [Example 284, 6-(2-hydroxyethyl)-2,5-dimethyl-3-(5-(4-(2-oxopyrrolidin-1-yl)phenyl)pyridin-3-yl)pyrazolo[1,5-a]pyrimidin-7(4H)-one] | 0.1 to 1 | 0.1 to 1 | 
COCc1cc(-c2cncc(-c3ccc(N4CCCC4=O)cc3)c2)n2nc(C)cc2n1 [Example 285, 1-(4-(5-(5-(methoxymethyl)-2-methylpyrazolo[1,5-a]pyrimidin-7-yl)pyridin-3-yl)phenyl)pyrrolidin-2-one] | 2.5 to 5 | 2.5 to 5 | 
Cc1nc(-c2cncc(-c3ccc(N4CCCC4=O)cc3)c2)c2sc(N3CCCCC3)nc2n1 [Example 286, 1-(4-(5-(5-methyl-2-(piperidin-1-yl)thiazolo[4,5-d]pyrimidin-7-yl)pyridin-3-yl)phenyl)pyrrolidin-2-one] | 0.01 to 0.1 | 0.1 to 1 | 
O=C(Nc1nccc(-c2cncc(-c3ccc(N4CCCC4=O)cc3)c2)n1)C1CCC1 [Example 287, N-(4-(5-(4-(2-oxopyrrolidin-1-yl)phenyl)pyridin-3-yl)pyrimidin-2-yl)cyclobutanecarboxamide] | 0.1 to 1 | 0.1 to 1 | 
O=C1CCCN1c1ccc(-c2cncc(-c3ncnc4nc(C5CCC5)[nH]c34)c2)cc1 [Example 289, 1-(4-(5-(8-cyclobutyl-7H-purin-6-yl)pyridin-3-yl)phenyl)pyrrolidin-2-one] | 2.5 to 5 | 1 to 2.5 | 
CC(O)c1cnc2[nH]c(C3CC3)c(-c3cncc(-c4ccc(N5CCCC5=O)cc4)c3)c2c1 (centres unmarked) [Example 291, 1-(4-(5-(2-cyclopropyl-5-(1-hydroxyethyl)-1H-pyrrolo[2,3-b]pyridin-3-yl)pyridin-3-yl)phenyl)pyrrolidin-2-one] | 0.01 to 0.1 | 0.01 to 0.1 | 
COC(=O)c1cc2c(-c3cncc(-c4ccc(N5CCCC5=O)cc4)c3)c(Cl)cnc2[nH]1 [Example 296, methyl 5-chloro-4-(5-(4-(2-oxopyrrolidin-1-yl)phenyl)pyridin-3-yl)-1H-pyrrolo[2,3-b]pyridine-2-carboxylate] | 0.1 to 1 | 0.1 to 1 | 
O=C(N[C@H]1C[C@H](c2ccccc2)C1)c1cc2c(-c3cncc(-c4ccc(N5CCCC5=O)cc4)c3)ccnc2[nH]1 [Example 297, 4-(5-(4-(2-oxopyrrolidin-1-yl)phenyl)pyridin-3-yl)-N-((1r,3r)-3-phenylcyclobutyl)-1H-pyrrolo[2,3-b]pyridine-2-carboxamide] | 1 to 2.5 | > 5 | 
O=C(NCCc1cncs1)c1cc2c(-c3cncc(-c4ccc(N5CCCC5=O)cc4)c3)ccnc2[nH]1 [Example 298, 4-(5-(4-(2-oxopyrrolidin-1-yl)phenyl)pyridin-3-yl)-N-(2-(thiazol-5-yl)ethyl)-1H-pyrrolo[2,3-b]pyridine-2-carboxamide] | 0.1 to 1 | 0.01 to 0.1 | 
CC(O)c1cnc2c(c1)c(-c1cncc(-c3ccc(N4CCCC4=O)cc3)c1)c1n2CCC1 (centres unmarked) [Example 351, 1-(4-(5-(3-(1-hydroxyethyl)-7,8-dihydro-6H-pyrido[3,2-b]pyrrolizin-5-yl)pyridin-3-yl)phenyl)pyrrolidin-2-one] | 0.01 to 0.1 | 0.01 to 0.1 | 
O=C1CCCN1c1ccc(-c2cncc(-c3c4n(c5ncncc35)CCC4)c2)cc1 [Example 352, 1-(4-(5-(7,8-dihydro-6H-pyrimido[5,4-b]pyrrolizin-5-yl)pyridin-3-yl)phenyl)pyrrolidin-2-one] | 0.01 to 0.1 | 0.01 to 0.1 | 
O=C1CCCN1c1ccc(-c2cncc(-c3c4n(c5ncc(Br)cc35)CCC4)c2)cc1 [Example 353, 1-(4-(5-(3-bromo-7,8-dihydro-6H-pyrido[3,2-b]pyrrolizin-5-yl)pyridin-3-yl)phenyl)pyrrolidin-2-one] | 0.01 to 0.1 | 0.01 to 0.1 | 

Results, then the molecule that gave them:

IC50 (GST tagged PIP4KtypeIIA) [µM] | IC50 (GST tagged PIP4KtypeIIB) [µM] | IC50 [1] [µM] | Compound
1 to 2.5 |  | < 5 | Cc1cc(N2CCCC2=O)ccc1-c1cncc(-c2ccncc2)c1 [Example 81, 1-(4-([3,4′-bipyridin]-5-yl)-3-methylphenyl)pyrrolidin-2-one]
> 5 |  | 1 to 2.5 | COCc1c(-c2ccncc2)cncc1-c1ccc(N2CCCC2=O)cc1 [Example 83, 1-(4-(4-(methoxymethyl)-[3,4′-bipyridin]-5-yl)phenyl)pyrrolidin-2-one]
0.01 to 0.1 |  | < 5 | Cn1cc(-c2cncc(-c3ccc(N4CCCC4=O)cc3)c2)c2cncnc21 [Example 153, 1-(4-(5-(7-methyl-7H-pyrrolo[2,3-d]pyrimidin-5-yl)pyridin-3-yl)phenyl)pyrrolidin-2-one]
0.1 to 1 | 0.1 to 1 |  | CCc1c(C)[nH]c2c(-c3cncc(-c4ccc(N5CCCC5=O)cc4)c3)cnn2c1=O [Example 288, 6-ethyl-5-methyl-3-(5-(4-(2-oxopyrrolidin-1-yl)phenyl)pyridin-3-yl)pyrazolo[1,5-a]pyrimidin-7(4H)-one]
0.1 to 1 | 0.1 to 1 |  | COC(=O)c1cc2c(-c3cncc(-c4ccc(N5CCCC5=O)cc4)c3)c(C)cnc2[nH]1 [Example 290, methyl 5-methyl-4-(5-(4-(2-oxopyrrolidin-1-yl)phenyl)pyridin-3-yl)-1H-pyrrolo[2,3-b]pyridine-2-carboxylate]
0.1 to 1 | 0.1 to 1 |  | O=C1CCCN1c1ccc(-c2cncc(-c3csc4ncccc34)c2)cc1 [Example 292, 1-(4-(5-(thieno[2,3-b]pyridin-3-yl)pyridin-3-yl)phenyl)pyrrolidin-2-one]
0.1 to 1 | 0.1 to 1 |  | C[C@@H](O)c1cnc2c(c1)c(-c1cncc(-c3ccc(N4CCCC4=O)cc3)c1)cn2C [Example 293, (R)-1-(4-(5-(5-(1-hydroxyethyl)-1-methyl-1H-pyrrolo[2,3-b]pyridin-3-yl)pyridin-3-yl)phenyl)pyrrolidin-2-one]
0.1 to 1 | 0.1 to 1 |  | C[C@H](O)c1cnc2c(c1)c(-c1cncc(-c3ccc(N4CCCC4=O)cc3)c1)cn2C [Example 294, (S)-1-(4-(5-(5-(1-hydroxyethyl)-1-methyl-1H-pyrrolo[2,3-b]pyridin-3-yl)pyridin-3-yl)phenyl)pyrrolidin-2-one]
0.1 to 1 | 1 to 2.5 |  | CN(C)S(=O)(=O)c1cnc2[nH]cc(-c3cncc(-c4ccc(N5CCCC5=O)cc4)c3)c2c1 [Example 295, N,N-dimethyl-3-(5-(4-(2-oxopyrrolidin-1-yl)phenyl)pyridin-3-yl)-1H-pyrrolo[2,3-b]pyridine-5-sulfonamide]

Reference: patent US11919902B2, “Aryl-bipyridine amine derivatives as phosphatidylinositol phosphate kinase inhibitors” (HiberCell, Inc., priority 2017, dated 2024)
